Read-outs that look alike come from different tables or passages of the source. Positions of bridges follow the written chain, without caps; N, C: chain ends. Residues, ends and D or L forms follow the SMILES beside them.
Key:
Test in all cases: cell-based
hNav1.3 = hNav1.3 (Homo sapiens, UniProt Q9NY46); settings: IonWorks Quattro, read-out: IWQ Use Nav1.3
hNav1.7 = hNav1.7 (Homo sapiens, UniProt Q15858); format: cell-based
hNav1.5 = hNav1.5 (Homo sapiens, UniProt Q14524)
[1] = Table 25, IonWorks Quattro, use, […], read-out: IWQ Use Nav1.7
[2] = Table 25, IonWorks Quattro, use, […], read-out: IWQ Use Nav1.5
[3] = IonWorks Quattro, Use, read-out: IWQ Use Nav1.7
[4] = IonWorks Quattro, Use, read-out: IWQ Use Nav1.5

Sequence of hNav1.7 (Q15858 whole entry, looked up): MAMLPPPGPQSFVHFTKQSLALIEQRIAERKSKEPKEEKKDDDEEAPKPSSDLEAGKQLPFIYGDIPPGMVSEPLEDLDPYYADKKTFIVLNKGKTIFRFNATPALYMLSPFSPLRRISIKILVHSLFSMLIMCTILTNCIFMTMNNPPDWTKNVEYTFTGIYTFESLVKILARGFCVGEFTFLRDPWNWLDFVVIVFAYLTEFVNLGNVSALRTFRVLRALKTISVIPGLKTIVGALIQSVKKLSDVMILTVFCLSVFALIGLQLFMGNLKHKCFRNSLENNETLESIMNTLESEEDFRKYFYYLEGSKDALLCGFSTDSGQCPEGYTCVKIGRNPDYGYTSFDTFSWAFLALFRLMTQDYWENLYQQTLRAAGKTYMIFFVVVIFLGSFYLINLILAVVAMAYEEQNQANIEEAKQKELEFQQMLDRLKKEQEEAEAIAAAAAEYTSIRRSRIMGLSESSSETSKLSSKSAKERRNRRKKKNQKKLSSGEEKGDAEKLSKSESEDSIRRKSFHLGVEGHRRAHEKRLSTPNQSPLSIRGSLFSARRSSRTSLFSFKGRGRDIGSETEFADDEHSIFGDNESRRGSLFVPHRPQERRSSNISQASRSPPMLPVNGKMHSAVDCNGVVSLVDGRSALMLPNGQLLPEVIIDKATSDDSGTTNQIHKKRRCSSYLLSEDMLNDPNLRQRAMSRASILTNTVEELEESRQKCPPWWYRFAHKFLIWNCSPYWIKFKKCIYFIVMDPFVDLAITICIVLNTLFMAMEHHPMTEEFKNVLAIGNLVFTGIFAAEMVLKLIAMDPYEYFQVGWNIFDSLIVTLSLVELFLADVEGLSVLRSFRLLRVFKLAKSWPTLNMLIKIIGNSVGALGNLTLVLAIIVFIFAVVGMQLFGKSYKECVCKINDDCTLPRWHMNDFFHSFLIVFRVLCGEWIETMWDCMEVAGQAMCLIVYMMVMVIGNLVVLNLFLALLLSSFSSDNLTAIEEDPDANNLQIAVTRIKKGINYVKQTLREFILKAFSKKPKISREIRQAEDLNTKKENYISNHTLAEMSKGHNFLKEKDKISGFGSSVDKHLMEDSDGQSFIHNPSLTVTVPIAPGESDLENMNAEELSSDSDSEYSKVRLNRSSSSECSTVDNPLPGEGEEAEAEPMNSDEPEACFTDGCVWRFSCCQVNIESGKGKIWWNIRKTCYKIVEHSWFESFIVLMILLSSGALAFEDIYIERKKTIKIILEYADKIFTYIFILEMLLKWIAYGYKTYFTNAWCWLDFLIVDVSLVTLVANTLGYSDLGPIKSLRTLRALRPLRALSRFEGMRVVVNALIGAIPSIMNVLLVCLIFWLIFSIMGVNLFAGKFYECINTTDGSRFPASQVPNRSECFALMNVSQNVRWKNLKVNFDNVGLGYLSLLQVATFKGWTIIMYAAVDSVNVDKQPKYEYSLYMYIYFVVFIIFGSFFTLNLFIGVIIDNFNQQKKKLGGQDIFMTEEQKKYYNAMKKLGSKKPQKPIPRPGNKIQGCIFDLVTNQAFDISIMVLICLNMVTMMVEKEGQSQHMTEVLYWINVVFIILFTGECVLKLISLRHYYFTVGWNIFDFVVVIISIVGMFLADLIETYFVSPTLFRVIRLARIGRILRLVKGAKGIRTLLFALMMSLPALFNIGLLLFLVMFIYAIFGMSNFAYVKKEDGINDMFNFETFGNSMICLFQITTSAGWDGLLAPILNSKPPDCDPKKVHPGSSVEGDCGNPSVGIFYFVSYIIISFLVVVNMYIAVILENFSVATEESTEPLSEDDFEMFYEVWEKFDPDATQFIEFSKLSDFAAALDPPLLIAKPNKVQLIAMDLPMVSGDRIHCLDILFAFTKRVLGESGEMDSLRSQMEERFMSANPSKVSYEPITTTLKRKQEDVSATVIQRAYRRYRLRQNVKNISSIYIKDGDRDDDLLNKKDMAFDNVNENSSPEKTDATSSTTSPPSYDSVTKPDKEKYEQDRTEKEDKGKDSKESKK
Sequence of hNav1.3 (Q9NY46 whole entry, looked up): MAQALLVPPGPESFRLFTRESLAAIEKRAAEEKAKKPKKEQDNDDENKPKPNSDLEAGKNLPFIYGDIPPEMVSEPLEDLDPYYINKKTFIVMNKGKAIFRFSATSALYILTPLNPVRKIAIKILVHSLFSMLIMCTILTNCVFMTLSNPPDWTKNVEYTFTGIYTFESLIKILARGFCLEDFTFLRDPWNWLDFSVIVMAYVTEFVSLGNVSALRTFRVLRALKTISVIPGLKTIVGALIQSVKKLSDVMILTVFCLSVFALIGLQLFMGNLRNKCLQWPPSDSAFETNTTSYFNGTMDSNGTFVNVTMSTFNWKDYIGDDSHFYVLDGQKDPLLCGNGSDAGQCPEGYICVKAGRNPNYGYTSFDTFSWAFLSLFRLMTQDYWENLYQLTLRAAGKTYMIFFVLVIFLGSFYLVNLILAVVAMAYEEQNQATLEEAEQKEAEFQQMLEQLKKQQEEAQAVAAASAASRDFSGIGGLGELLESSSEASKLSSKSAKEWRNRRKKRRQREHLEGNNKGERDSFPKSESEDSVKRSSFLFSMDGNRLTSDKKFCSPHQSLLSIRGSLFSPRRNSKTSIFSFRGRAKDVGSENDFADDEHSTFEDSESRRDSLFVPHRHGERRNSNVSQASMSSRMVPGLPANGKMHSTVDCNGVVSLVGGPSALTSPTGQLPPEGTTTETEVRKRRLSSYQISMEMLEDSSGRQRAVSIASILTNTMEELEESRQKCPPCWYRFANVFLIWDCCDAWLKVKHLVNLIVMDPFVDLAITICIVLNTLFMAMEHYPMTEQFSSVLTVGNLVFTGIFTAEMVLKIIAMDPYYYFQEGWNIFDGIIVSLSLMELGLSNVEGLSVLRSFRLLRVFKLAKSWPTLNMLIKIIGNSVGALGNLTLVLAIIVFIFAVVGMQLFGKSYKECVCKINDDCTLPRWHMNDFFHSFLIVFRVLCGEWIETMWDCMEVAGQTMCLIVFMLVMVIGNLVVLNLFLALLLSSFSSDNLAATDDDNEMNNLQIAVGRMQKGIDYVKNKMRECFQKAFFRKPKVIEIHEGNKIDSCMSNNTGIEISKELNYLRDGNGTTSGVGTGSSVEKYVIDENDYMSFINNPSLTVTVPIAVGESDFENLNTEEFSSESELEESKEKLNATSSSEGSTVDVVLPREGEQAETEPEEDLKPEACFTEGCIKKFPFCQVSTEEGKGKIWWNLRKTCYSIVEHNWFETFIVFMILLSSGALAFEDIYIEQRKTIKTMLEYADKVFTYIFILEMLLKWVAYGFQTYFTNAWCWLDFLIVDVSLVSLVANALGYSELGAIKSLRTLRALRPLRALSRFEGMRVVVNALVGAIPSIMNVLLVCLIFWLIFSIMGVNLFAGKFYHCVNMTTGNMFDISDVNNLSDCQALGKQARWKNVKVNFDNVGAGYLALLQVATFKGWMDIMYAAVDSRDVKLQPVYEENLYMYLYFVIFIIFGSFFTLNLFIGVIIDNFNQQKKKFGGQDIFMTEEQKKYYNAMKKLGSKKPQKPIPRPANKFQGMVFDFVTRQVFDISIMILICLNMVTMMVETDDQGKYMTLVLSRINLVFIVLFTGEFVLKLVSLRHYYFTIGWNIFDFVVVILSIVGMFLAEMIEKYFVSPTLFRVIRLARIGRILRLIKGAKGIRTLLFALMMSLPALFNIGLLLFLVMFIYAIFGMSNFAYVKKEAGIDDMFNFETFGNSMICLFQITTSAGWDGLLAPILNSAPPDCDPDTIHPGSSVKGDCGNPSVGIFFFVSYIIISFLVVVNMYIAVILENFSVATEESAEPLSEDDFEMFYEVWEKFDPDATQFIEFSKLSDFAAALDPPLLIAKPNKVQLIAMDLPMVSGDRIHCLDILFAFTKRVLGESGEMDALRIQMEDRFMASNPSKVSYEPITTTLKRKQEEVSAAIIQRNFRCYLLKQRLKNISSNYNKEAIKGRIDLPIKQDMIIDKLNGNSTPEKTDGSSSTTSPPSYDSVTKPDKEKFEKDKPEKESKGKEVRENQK

**Q.** How did the IC50 (hNav1.3; Table 25, use, […]) turn out when `CC[C@H](C)[C@@H]1NC(=O)[C@@H]2CSSC[C@@H]3NC(=O)[C@H](C(C)C)NC(=O)[C@H](CC(C)C)NC(=O)[C@H](CC(N)=O)NC(=O)[C@@H]4CCCN4C(=O)[C@H](CCCNC(=N)N)NC(=O)[C@H](CSSC[C@H](NC(=O)[C@@H](N)CC(=O)O)C(=O)N[C@@H](CC(C)C)C(=O)NCC(=O)N[C@@H](Cc4ccccc4)C(=O)N[C@@H](CCSC)C(=O)N[C@@H](CCCNC(=N)N)C(=O)N[C@@H](CCCCN)C(=O)N2)NC(=O)[C@H](CSSC[C@@H](C(=O)N[C@@H](CCCCN)C(=O)N2CCC[C@H]2C(=O)N[C@H](C(=O)N[C@@H](Cc2ccccc2)C(N)=O)C(C)C)NC(=O)[C@H](Cc2c[nH]c4ccccc24)NC(=O)[C@H](CCCCN)NC(=O)[C@H](Cc2c[nH]cn2)NC(=O)[C@H]([C@@H](C)O)NC(=O)[C@H](CCCNC(=N)N)NC(=O)[C@H](CO)NC3=O)NC(=O)[C@H](CCCCN)NC(=O)[C@H](CC(=O)O)NC(=O)[C@H](CC(N)=O)NC(=O)[C@H](CC(=O)O)NC(=O)[C@@H]2CCCN2C1=O` [compound 383] (H-DCLGFMRKCIPDNDKCCRPNLVCSRTHKWCKPVF-NH2; disulfide 2-17, 9-23, 16-30) was run?
**A.** The IC50 was > 5 µM.

**Q.** And the IC50 (hNav1.7; [1])?
**A.** Its IC50 is > 5 µM.

**Q.** What about the IC50 (hNav1.5; [2]) of the same compound?
**A.** The IC50 was > 5 µM.

**Q.** How did the IC50 (hNav1.3; Table 25, use, […]) turn out when `CC[C@H](C)[C@@H]1NC(=O)[C@@H]2CSSC[C@@H]3NC(=O)[C@H](C(C)C)NC(=O)[C@H](CC(C)C)NC(=O)[C@H](CC(N)=O)NC(=O)[C@@H]4CCCN4C(=O)[C@H](CCCNC(=N)N)NC(=O)[C@H](CSSC[C@H](NC(=O)[C@@H](N)CC(=O)O)C(=O)N[C@@H](CC(C)C)C(=O)NCC(=O)N[C@@H](Cc4ccccc4)C(=O)N[C@@H](CCSC)C(=O)N[C@@H](CCCNC(=N)N)C(=O)N[C@@H](CCCCN)C(=O)N2)NC(=O)[C@H](CSSC[C@@H](C(=O)N[C@@H](CCCCN)C(=O)N[C@@H](CCSC)C(=O)N[C@H](C(=O)N[C@@H](Cc2ccccc2)C(N)=O)C(C)C)NC(=O)[C@H](Cc2c[nH]c4ccccc24)NC(=O)[C@H](CCCCN)NC(=O)[C@H](Cc2c[nH]cn2)NC(=O)[C@H]([C@@H](C)O)NC(=O)[C@H](CCCNC(=N)N)NC(=O)[C@H](CO)NC3=O)NC(=O)[C@H](CCCCN)NC(=O)[C@H](CC(=O)O)NC(=O)[C@H](CC(N)=O)NC(=O)[C@H](CC(=O)O)NC(=O)[C@@H]2CCCN2C1=O` [compound 368] (H-DCLGFMRKCIPDNDKCCRPNLVCSRTHKWCKMVF-NH2; disulfide 2-17, 9-23, 16-30) was run?
**A.** The IC50 was 0.14 µM.

**Q.** And the IC50 (hNav1.7; [1])?
**A.** Its IC50 is 0.35 µM.

**Q.** What about the IC50 (hNav1.5; [2]) of the same compound?
**A.** The IC50 was 6.21 µM.

**Q.** Which results are given for `CC[C@H](C)[C@@H]1NC(=O)[C@@H]2CSSC[C@@H]3NC(=O)[C@H](C(C)C)NC(=O)[C@H](CC(C)C)NC(=O)[C@H](CC(N)=O)NC(=O)[C@@H]4CCCN4C(=O)[C@H](CCCNC(=N)N)NC(=O)[C@H](CSSC[C@H](NC(=O)[C@H](CC(=O)O)NC(=O)[C@@H](N)CCC(=O)O)C(=O)N[C@@H](CC(C)C)C(=O)NCC(=O)N[C@@H](Cc4ccccc4)C(=O)N[C@@H](CCSC)C(=O)N[C@@H](CCCNC(=N)N)C(=O)N[C@@H](CCCCN)C(=O)N2)NC(=O)[C@H](CSSC[C@@H](C(=O)N[C@@H](CCCCN)C(=O)N[C@@H](Cc2ccc(O)cc2)C(=O)N[C@H](C(=O)N[C@@H](Cc2ccccc2)C(N)=O)C(C)C)NC(=O)[C@H](Cc2c[nH]c4ccccc24)NC(=O)[C@H](CCCCN)NC(=O)[C@H](Cc2cnc[nH]2)NC(=O)[C@H]([C@@H](C)O)NC(=O)[C@H](CCCNC(=N)N)NC(=O)[C@H](CO)NC3=O)NC(=O)[C@H](CCCCN)NC(=O)[C@H](CC(=O)O)NC(=O)[C@H](CC(N)=O)NC(=O)[C@H](CC(=O)O)NC(=O)[C@@H]2CCCN2C1=O` [SEQ ID NO: 17]?
**A.** IC50 (hNav1.3; clamped to −110 mV, depolarized to −10 mV, 5 min after compound, n=2): 0.19 µM; IC50 (hNav1.7): 0.26 µM; IC50 (hNav1.5; IWQ Use Nav1.5): 12.8 µM

**Q.** For `CCCCCCCC[C@@H]1NC(=O)CNC(=O)[C@H](CC(C)C)NC(=O)[C@@H](NC(=O)[C@@H](N)CC(=O)O)CSSC[C@@H]2NC(=O)[C@@H]3CSSC[C@@H](C(=O)N[C@@H](CCCCN)C(=O)N[C@@H](Cc4ccc(O)cc4)C(=O)N[C@H](C(=O)N[C@@H](Cc4ccccc4)C(N)=O)C(C)C)NC(=O)[C@H](Cc4c[nH]c5ccccc45)NC(=O)[C@H](CCCCN)NC(=O)[C@H](Cc4c[nH]cn4)NC(=O)[C@H]([C@@H](C)O)NC(=O)[C@H](CCCNC(=N)N)NC(=O)[C@H](CO)NC(=O)[C@H](CSSC[C@H](NC(=O)[C@H](CCCCN)NC(=O)[C@H](CCCNC(=N)N)NC(=O)[C@H](CC(C)C)NC1=O)C(=O)N[C@@H]([C@@H](C)CC)C(=O)N1CCC[C@H]1C(=O)N[C@@H](CC(=O)O)C(=O)N[C@@H](CC(N)=O)C(=O)N[C@@H](CC(=O)O)C(=O)N[C@@H](CCCCN)C(=O)N3)NC(=O)[C@H](C(C)C)NC(=O)[C@H](CC(C)C)NC(=O)[C@H](CC(N)=O)NC(=O)[C@@H]1CCCN1C(=O)[C@H](CCCNC(=N)N)NC2=O` [compound 639], which IC50 (hNav1.3; use-dependent protocol, hNav1.3) is on record?
**A.** Its IC50 is 0.033 µM.

**Q.** And the IC50 (hNav1.7; IonWorks Quattro, use-dependent protocol, hNav1.7, read-out: IWQ Use Nav1.7)?
**A.** The IC50 was 0.015 µM.

**Q.** And the IC50 (hNav1.5; IonWorks Quattro, use-dependent protocol, hNav1.5, read-out: IWQ Use Nav1.5)?
**A.** The IC50 was 1.7 µM.

**Q.** Which results are given for `CC[C@H](C)[C@@H]1NC(=O)[C@@H]2CSSC[C@@H]3NC(=O)[C@H](C(C)C)NC(=O)[C@H](CC(C)C)NC(=O)[C@H](CC(N)=O)NC(=O)[C@@H]4CCCN4C(=O)[C@H](CCCNC(=N)N)NC(=O)[C@H](CSSC[C@H](NC(=O)[C@@H](N)CC(=O)O)C(=O)N[C@@H](CC(C)C)C(=O)NCC(=O)N[C@@H](C)C(=O)N[C@@H](Cc4ccccc4)C(=O)N[C@@H](CCCNC(=N)N)C(=O)N[C@@H](CCCCN)C(=O)N2)NC(=O)[C@H](CSSC[C@@H](C(=O)N[C@@H](CCCCN)C(=O)N[C@@H](Cc2ccc(O)cc2)C(=O)N[C@H](C(=O)N[C@@H](Cc2ccccc2)C(=O)O)C(C)C)NC(=O)[C@H](Cc2c[nH]c4ccccc24)NC(=O)[C@H](CCCNC(=N)N)NC(=O)[C@H](Cc2c[nH]cn2)NC(=O)[C@H]([C@@H](C)O)NC(=O)[C@H](CCCNC(=N)N)NC(=O)[C@H](CO)NC3=O)NC(=O)[C@H](CCCCN)NC(=O)[C@H](CC(=O)O)NC(=O)[C@H](CCC(N)=O)NC(=O)[C@H](CC(=O)O)NC(=O)[C@@H]2CCCN2C1=O` [compound 847]?
**A.** IC50 (hNav1.3; use-dependent block, hNav1.3): 1.7 µM; IC50 (hNav1.7; IonWorks Quattro, use-dependent block, hNav1.7, read-out: IWQ Use Nav1.7): > 5 µM; IC50 (hNav1.5; IonWorks Quattro, use-dependent block, hNav1.5, read-out: IWQ Use Nav1.5): > 5 µM

**Q.** `CC[C@H](C)[C@@H]1NC(=O)[C@@H]2CSSC[C@@H]3NC(=O)[C@H](C(C)C)NC(=O)[C@H](CC(C)C)NC(=O)[C@H](CC(N)=O)NC(=O)[C@@H]4CCCN4C(=O)[C@H](CCCNC(=N)N)NC(=O)[C@H](CSSC[C@H](NC(=O)[C@@H](N)CC(=O)O)C(=O)N[C@@H](CC(C)C)C(=O)NCC(=O)N[C@@H](Cc4ccccc4)C(=O)N[C@@H](CCSC)C(=O)N[C@@H](CCCNC(=N)N)C(=O)N[C@@H](CCCCN)C(=O)N2)NC(=O)[C@H](CSSC[C@@H](C(=O)N[C@@H](CCCCN)C(=O)N[C@@H](Cc2ccc(O)cc2)C(=O)N[C@H](C(=O)N[C@@H](Cc2ccccc2)C(N)=O)C(C)C)NC(=O)[C@H](Cc2c[nH]c4ccccc24)NC(=O)[C@H](CCCCN)NC(=O)[C@H](Cc2c[nH]cn2)NC(=O)[C@H]([C@@H](C)O)NC(=O)[C@H](CCCNC(=N)N)NC(=O)[C@H](CO)NC3=O)NC(=O)[C@H](CCCCN)NC(=O)[C@H](CC(=O)O)NC(=O)[C@H](CC(N)=O)NC(=O)[C@H](CO)NC(=O)[C@@H]2CCCN2C1=O` [compound 91] (H-DCLGFMRKCIPSNDKCCRPNLVCSRTHKWCKYVF-NH2; disulfide 2-17, 9-23, 16-30) was tested. Which IC50 (hNav1.3; Use) did it give?
**A.** The IC50 was 0.19 µM.

**Q.** What about the IC50 (hNav1.7; [3]) of the same compound?
**A.** The IC50 was 0.08 µM.

**Q.** What about the IC50 (hNav1.5; [4]) of the same compound?
**A.** The IC50 was 9.58 µM.

**Q.** Which results are given for `CC[C@H](C)[C@@H]1NC(=O)[C@@H]2CSSC[C@@H]3NC(=O)[C@H](C(C)C)NC(=O)[C@H](CC(C)C)NC(=O)[C@H](CC(N)=O)NC(=O)CNC(=O)[C@H](CCCNC(=N)N)NC(=O)[C@H](CSSC[C@H](NC(=O)[C@@H](N)CC(=O)O)C(=O)N[C@@H](CC(C)C)C(=O)NCC(=O)N[C@@H](Cc4ccccc4)C(=O)N[C@@H](CCSC)C(=O)N[C@@H](CCCNC(=N)N)C(=O)N[C@@H](CCCCN)C(=O)N2)NC(=O)[C@H](CSSC[C@@H](C(=O)N[C@@H](CCCCN)C(=O)N[C@@H](Cc2ccc(O)cc2)C(=O)N[C@H](C(=O)N[C@@H](Cc2ccccc2)C(N)=O)C(C)C)NC(=O)[C@H](Cc2c[nH]c4ccccc24)NC(=O)[C@H](CCCCN)NC(=O)[C@H](Cc2c[nH]cn2)NC(=O)[C@H]([C@@H](C)O)NC(=O)[C@H](CCCNC(=N)N)NC(=O)[C@H](CO)NC3=O)NC(=O)[C@H](CCCCN)NC(=O)[C@H](CC(=O)O)NC(=O)[C@H](CC(N)=O)NC(=O)[C@H](CC(=O)O)NC(=O)[C@@H]2CCCN2C1=O` [compound 126] (H-DCLGFMRKCIPDNDKCCRGNLVCSRTHKWCKYVF-NH2; disulfide 2-17, 9-23, 16-30)?
**A.** IC50 (hNav1.3; Use): 0.11 µM; IC50 (hNav1.7; [3]): 0.1 µM; IC50 (hNav1.5; [4]): 11.9 µM

— patent US9340590B2 (priority 2011, dated 2016)
